EP4467137A1, “TREATMENT OF FRONTOTEMPORAL DEMENTIA OR FRONTOTEMPORAL LOBAR DEMENTIA” (Universidad Autónoma de Madrid, priority 2023, dated 2024)

What was measured:
[1] = In vitro blood-brain barrier permeation assay (PAMPA-BBB); type: in vitro ADME
Text: The in vitro blood-brain barrier permeation assay (PAMPA-BBB) was used for predicting the brain penetration of compounds, following a described method [Herrera-Arozamena, Clara et al. "Resveratrol-Based MTDLs to Stimulate Defensive and Regenerative Pathways and Block Early Events in Neurodegenerative Cascades." Journal of medicinal chemistry vol. 65,6 (2022): 4727-4751. doi:10.1021/acs.jmedchem.1c01883]. The results are given as the mean ± SD. In each experiment, 11 quality control standards of known BBB permeability were included to validate the analysis set.

[2] = LPS in vivo model: sickness behaviour (body weight, locomotion, novel object recognition); set-up: species or system mouse; details: 20 mg·kg^-1 i.p.
Method: The LPS in vivo model was induced, sickness behaviour evaluated (locomotion test and novel object recognition test) and cytokines measured by qPCR as described by [Fernández-Mendivil, Cristina et al. "Protective role of microglial HO-1 blockade in aging: Implication of iron metabolism." Redox biology vol. 38 (2021): 101789. doi:10.1016/j.redox.2020.101789]. The panel of mouse cytokines, chemokines, and growth factors were measured by Luminex xMAP technology for multiplexed quantification at Evetechnologies (https://www.evetechnologies.com/)
Example 2.3.1. Treatment with Compound 1 reduces LPS-induced cytokine expression and release in mouse brain. Mice were treated i.p. with a daily dose of 20 mg·kg^-1 of Compound 1 for 4 consecutive days. On the last day, LPS (0.5 mg·kg^-1) was injected i.p. one h after the compound. Thereafter, behavioural, and biochemical outcomes were analysed at different time points.
Example 2.3.3. Treatment with Compound 1 reduces LPS-induced sickness behaviour. Peripheral administration of LPS produces neuroinflammation and induces a "sickness behaviour" in mice that is characterized by body weight loss, reduction of the locomotor activity and a cognitive decline.

[3] = test system: proinflammatory cytokines; test: LPS in vivo model: brain cytokine mRNAs by qRT-PCR; set-up: species or system mouse; details: 20 mg·kg^-1 i.p. daily for 4 days; 4 h and 24 h after LPS 0.5 mg·kg^-1 i.p.
Method: • Figure 1. Compound 1 reduces the inflammatory response against LPS in vitro. (A) Nitric oxide (NO) production in BV2 cells detected by DAF 24 h after LPS exposure and normalized by cell viability measured by MTT (n = 9). (B) qRT-PCR of TNFα (n = 9) in BV2 cells after 24 h LPS exposure. Sulforaphane (Sfn) was used as a positive control. […] Compound 1 decreases the inflammatory process 4 and 24 hours after LPS administration in vivo. Compound 1 (20 mg·kg^-1) daily was injected i.p. four days before the i.p. LPS (0.5 mg·kg^-1) administration. […] Compound 1 ameliorates the resolution of the inflammatory process triggered by LPS. […] (B) Locomotion activity measured by line crossings of an imaginary grid. […] Compound 1 reduced tau seeding in HEK-293 tau FRET biosensor measured by flow cytometer (C). […] Representative images of hyperphosphorylated tau intensity measured by AT8 and AT180 antibodies in three different regions of the hippocampus (GD, CA3 and CA1) (n = 11-12). (B) Quantification AT8 intensity, normalized to CA3 intensity of Sham animals. (C) Quantification of AT180 intensity, normalized to CA3 intensity of Sham animals (n = 9-12). […] Quantification of sarkosyl soluble (n = 10) (C) and insoluble species (D) using AT8 antibody (n = 10). Quantification of sarkosyl soluble (n = 10) (E) and insoluble species (F) using AT180 antibody (n = 10). […]

For `COc1ccc2c(c1)CC(c1c[nH]c3ccc(OC)cc13)N2` (stereo not shown) [Compound 1, 5-Methoxy-3-(5-methoxyindolin-2-yl)-1H-indole], the “PAMPA-BBB predicted brain penetration” value [1] was “cns+”, the Papp ([1]; PAMPA, permeation rate, mean ± SD, read-out: PAMPA-BBB Pe) was 12.9 ± 0.9 ×10⁻⁶ cm/s and the “Locomotion, line crossings of an imaginary grid” value ([2]; 4 and 8 h after LPS exposure, values similar to saline animals) was “improved”. For the same compound, the body weight loss ([2]; compared to LPS-vehicle treated animals) was “less reduction of the body weight loss”, the “cognitive decline (NOR test, discrimination index)” value ([2]; compared to vehicle-LPS treated animals) was “did not show cognitive decline” and the “IL-1β mRNA in brain” value [3] was “reduced”. For the same compound, the “TNFα mRNA in brain” value [3] was “reduced”.
